# Assay results: paper PMC12040169 (PLOS Biology, 2025)
# Test: in vitro
# Settings: human, hela cells, % viability
row,Compound,"viability at 28.5 h, 10 µM [%]"
1,CCNC(=O)Nc1ccc2c(-c3ccccc3)ccnc2n1 [CBK070668],95.6
2,CCNC(=O)Nc1ncc(-c2ccsc2)c2cccnc12 [CBK070686],103
3,CCNC(=O)Nc1cc2cccnc2nc1-c1ccc(S(C)(=O)=O)cc1 [CBK070706],93.3
4,O=C(Nc1ccccc1)Nc1nc(=O)n(-c2ccccc2)s1 [CBK070710],93
5,O=C1N=C(NC2CCCCCC2)S[C@@H]1CC1CCCCC1 [CBK070723],95.8
6,c1ccc2c(c1)OCC(COc1nccnc1OC1CCNCC1)O2 (stereo not shown) [CBK070766T],102
7,COc1ccccc1C(=O)Nc1ccc2nc(SCC(=O)NC3CC3)sc2c1 [CBK070791],92.7
8,CCCCNC(=O)CSc1ncccc1C(=O)NCc1cccnc1 [CBK071590],91
9,COCCCNC(=O)c1cnn2c(C)c(Cc3ccccc3Br)c(C)nc12 [CBK071628],101
10,CCNC(Cc1ccc2ccccc2c1)C(=O)OC (stereo not shown) [CBK071702],109
11,CC(=O)Nc1cc(C(=O)NCCc2ccccc2)ccc1S(=O)(=O)c1ccc(C)cc1 [CBK071771],89.3
12,Cc1ccc(CNC(=O)c2ccc3c(c2)NC(=O)C(N2CCCC2)S3)cc1 (stereo not shown) [CBK071788],84.6
13,CCCCN(C)CCNC(=O)c1ccc2c(c1)NC(=O)C(N1CCCCC1)S2 (stereo not shown) [CBK071799],85.1
14,COc1ccccc1NC(=O)Cn1cnc2sc(C(=O)NC(C)C)c(C)c2c1=O [CBK071847],93
15,CCOCCn1cnc2sc(C(=O)NCc3ccccn3)c(C)c2c1=O [CBK071857],93.4
16,Cc1cc2c(=O)n(CC(=O)NCc3ccccn3)cnc2s1 [CBK071900],91.1
17,CCCNC(=O)Cn1cnc2sc(C(=O)Nc3ccccc3OC)c(C)c2c1=O [CBK071910],90.3
18,CCCNC(=O)Cn1cnc2sc(C(=O)Nc3ccc(OCC)cc3)c(C)c2c1=O [CBK071920],91.2
19,O=C(CN1CCN(S(=O)(=O)c2ccc(F)cc2)CC1)Nc1cccc(C(F)(F)F)c1 [CBK071925],92.7
20,O=C(Nc1nc2ccccc2s1)c1cccnc1Cl [CBK071983],108
21,Cc1cc(C)c2c(N)c(C(=O)Nc3ccc(Br)cc3)sc2n1 [CBK072019],108
22,COc1cccc(NC(=O)c2sc(N)nc2-c2ccccc2)c1 [CBK072023],95.2

row,Compound,"viability at 28.5 h, 10 µM [%]"
1,Cc1ccc(-c2csc(NC(=O)c3ccccc3C(=O)O)n2)cc1 [CBK072083],91.9
2,CCOC(=O)C1=C(C)NC(=O)NC1c1ccc(-c2cccc([N+](=O)[O-])c2)o1 (stereo not shown) [CBK072102],109
3,CC(C)NC(=O)CSc1nc2ccccc2[nH]1 [CBK072235],92.9
4,COc1cc(NC(=O)CCc2ccccc2)nc(OC)n1 [CBK072282],79.5
5,O=C1NC(c2cccnc2)Nc2sc3c(c21)CCCC3 (stereo not shown) [CBK072377],103
6,CCN(CC)CCSc1nc(O)c(Cc2ccccc2)c(=O)[nH]1 [CBK072486],88.9
7,O=C(COc1ccccc1)N1CCN(Cc2ccncc2)CC1 [CBK072595],94.6
8,Clc1ccc(Nc2ncnc3ccccc23)cc1 [CBK072625],86.1
9,COc1ccc(C(=O)Nc2cccc(-c3nc4ccccc4[nH]3)c2)c(OC)c1 [CBK072662],95.4
10,Cc1ccc(-c2csc(NC(=O)c3cccnc3)n2)cc1 [CBK072677],96.9
11,Cc1nc2ccccc2c(=O)n1CC(=O)NCc1ccccc1 [CBK072830],91.9
12,O=C(O)c1cccc(Nc2ncnc3ccccc23)c1 [CBK073042],87.8
13,OCCNc1ncnc2ccc(Br)cc12 [CBK073217],93.9
14,O=C(COc1ccc(Br)cc1)N1CCN(Cc2ccncc2)CC1 [CBK073259],98.1
15,O=C(COc1ccccc1)N1CCN(Cc2ccccn2)CC1 [CBK073265G],86.1
16,Cc1ccccc1OCc1nc(C#N)c(NCc2ccc3c(c2)OCO3)o1 [CBK073372],109
17,Cc1cc(NC(=O)CNC(=O)c2ccccc2)no1 [CBK073427],99.7
18,CC(C)C(=O)Nc1cccc(C(=O)Nc2nnc(C(F)(F)F)s2)c1 [CBK073453],107
19,COC(=O)C1=C(C)N=C2SCCC(=O)N2C1c1ccc(C(C)C)cc1 (stereo not shown) [CBK073523],109
20,COc1ccc(C)cc1S(=O)(=O)Nc1cc(N2CCN(CC3CC3)CC2)c2occc2c1 [CBK073624C],94.2
21,CC(C)C(=O)Nc1cc2cccnc2nc1-c1ccccc1 [CBK073647],94.7
22,CC(C)C(=O)Nc1cc2cccnc2nc1-c1ccsc1 [CBK073649],87.8

row,Compound,"viability at 28.5 h, 10 µM [%]"
1,CC(C)C(=O)Nc1cc2cccnc2nc1-c1ccc2c(c1)OCCCO2 [CBK073658],96.3
2,COc1cc(-c2nc3ncccc3cc2NC(=O)C(C)C)cc(OC)c1OC [CBK073661],96.6
3,COc1ccc(-c2ccc3ccc(NC(=O)C(C)C)nc3n2)cc1C [CBK073665],92.3
4,COc1ccc([C@@]23CC[C@@H](NC(=O)Nc4ccc(C)c(F)c4F)C[C@@H]2N(C)CC3)cc1OC [CBK073686T],87.3
5,Oc1cc2cccnc2nc1-c1ccccc1 [CBK073697],115
6,CC(C)(C)c1ccc(-c2nc3ncccc3cc2O)cc1 [CBK073703],74.5
7,Oc1cc2cccnc2nc1-c1cccc(C(F)(F)F)c1 [CBK073704],79
8,COc1ccc(-c2ccc3ccc(=O)[nH]c3n2)cc1C [CBK073712],108
9,O=c1ccc2ccc(-c3cccc(C(F)(F)F)c3)nc2[nH]1 [CBK073717],83.7
10,O=c1ccc2ccc(-c3ccc(OC(F)(F)F)cc3)nc2[nH]1 [CBK073720],98.8
11,O=c1ccc2c(-c3ccccc3)ccnc2[nH]1 [CBK073723],94.2
12,O=c1ccc2c(-c3ccsc3)ccnc2[nH]1 [CBK073724],91.5
13,COc1cc(F)ccc1-c1ccnc2[nH]c(=O)ccc12 [CBK073727],74.2
14,O=c1ccc2c(-c3cccc(OCc4ccccc4)c3)ccnc2[nH]1 [CBK073739],87.6
15,COc1ccc([C@@]23CC[C@@H](NC(=O)Nc4c(F)cc(F)cc4Cl)C[C@@H]2N(C)CC3)cc1OC [CBK073740T],112
16,COc1ccc([C@@]23CC[C@@H](NC(=O)Nc4c(F)ccc(F)c4Cl)C[C@@H]2N(C)CC3)cc1OC [CBK073769T],93
17,CS(=O)(=O)Nc1cc2ccccc2c(-c2ccc3c(c2)CCO3)n1 [CBK073773],90.5
18,CCNC(=O)Nc1cc2ccccc2c(-c2cccnc2)n1 [CBK073787],82.3
19,CCOC(=O)C1(N)CCCC1 [CBK073836C],94.4
20,O=C1CCC(=O)N1 [CBK073851],88.7
21,CCN(Cc1ccccc1)[C@@H](CO)Cc1ccc(OC)cc1 [CBK073856T],89.6
22,Cc1cc(C)nc(SCC(=O)N2c3ccccc3C(C)(c3ccc(Cl)cc3)CC2(C)C)n1 (stereo not shown) [CBK073872],110

# Same assay, conditions: human, hela cells, % viability, bulk resorufin, single well
row,Compound,"viability at 28.5 h, 10 µM [%]"
1,Cc1[nH]c2c(Cl)cc(Cl)cc2c1CCN [CBK070893],103
